Assay results reported in the NIST ThermoML archive (doi:10.1021/acs.jced.8b00614).

Assays:
[1] = Boiling temperature at pressure P; conditions: Liquid, Ebulliometric method (Recirculating still)
[2] = Liquid; for mass density: 298.2 K, 101.33 kPa, Vibrating tube method; for vapor or sublimation pressure: Chromatography
[3] = refractive index (Na D-line) (dimensionless); conditions: 298.2 K; 101.33 kPa; Liquid; Standard Abbe refractometry

COC(C)(C)C [2-methoxy-2-methylpropane]
Conditions | Boiling temperature at pressure P [°C] | vapor or sublimation pressure [kPa]
[1], 20 kPa | 13.0 | –
[1], 30 kPa | 22.2 | –
[1], 40 kPa | 29.5 | –
[1], 50 kPa | 35.2 | –
[1], 60 kPa | 40.2 | –
[1], 70 kPa | 44.5 | –
[1], 79.9 kPa | 48.4 | –
[1], 90 kPa | 51.8 | –
[1], 99.7 kPa | 55.0 | –
[2], 307.2 K | – | 47.7
[2], 317.2 K | – | 68.9
[2], 327.2 K | – | 97.1

Conditions | mass density [kg/m3] | refractive index
[2] | 735.38 | –
[3] | – | 1.36632

CC(C)CC(C)(C)C [2,2,4-trimethylpentane]
Conditions | Boiling temperature at pressure P [°C] | vapor or sublimation pressure [kPa]
[1], 5 kPa | 19.4 | –
[1], 10 kPa | 34.0 | –
[1], 20 kPa | 50.7 | –
[1], 30 kPa | 61.4 | –
[1], 40 kPa | 69.5 | –
[1], 50 kPa | 76.1 | –
[1], 60 kPa | 81.8 | –
[1], 70 kPa | 86.7 | –
[1], 80 kPa | 91.1 | –
[1], 90 kPa | 95.2 | –
[1], 99.7 kPa | 98.8 | –
[2], 307.2 K | – | 10
[2], 317.2 K | – | 15.3
[2], 327.2 K | – | 22.8
[2], 350.2 K | – | 51.6
[2], 360.2 K | – | 70.7
[2], 370.2 K | – | 95

Conditions | mass density [kg/m3] | refractive index
[2] | 687.73 | –
[3] | – | 1.3891

CCCCCO [pentan-1-ol]
Conditions | Boiling temperature at pressure P [°C] | vapor or sublimation pressure [kPa]
[1], 1.1 kPa | 44.2 | –
[1], 5 kPa | 68.2 | –
[1], 10 kPa | 81.4 | –
[1], 20 kPa | 96 | –
[1], 30 kPa | 105.2 | –
[1], 40 kPa | 112.4 | –
[1], 50 kPa | 118.2 | –
[1], 60 kPa | 123.1 | –
[1], 70 kPa | 127.2 | –
[1], 79.9 kPa | 131.1 | –
[1], 90 kPa | 134.6 | –
[1], 99.7 kPa | 137.7 | –
[2], 317.2 K | – | 1.1
[2], 327.2 K | – | 2.1
[2], 350.2 K | – | 8
[2], 360.2 K | – | 13.3
[2], 370.2 K | – | 21

Conditions | mass density [kg/m3] | refractive index
[2] | 810.9 | –
[3] | – | 1.40764
